Here are results for seven compounds from ChEMBL document CHEMBL1201862, “PubChem BioAssay data set” (2004).

Among the test systems are ACHN; SR; Hs-578T; HCT-15; CAKI-1; MDA-N; SF-539; UACC-257; SW-620; HOP-92; K562; SK-OV-3; HCC 2998; T47D; NCI/ADR-RES; HCT-116; M14; NCI-H226; LOX IMVI; CCRF-CEM.
Holding throughout (test): growth of human tumour cells (NCI), 48 h

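Results reflect a 48-hour exposure of cells in 96-well plates to compound at five concentrations. Here, GI50 denotes the concentration required for 50% inhibition of growth.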 The source made the active and inactive calls. Cut-off read from the data, not from the text of the source: active = GI50 up to about 1.1 µM and inactive = higher.

For the compound `COC(=O)CC1C(C)(C)C(=O)C2CC3=C4CC(=O)OC(c5ccoc5)C4(C)CCC3C1(C)C2=O` (stereo not given), the GI50 is > 100 µM (inactive) in the test on ACHN; > 100 µM (inactive) in the test on SR; > 100 µM (inactive) with Hs-578T; above 100 µM in the test with HCT-15; > 100 µM (inactive) in the test on CAKI-1; > 100 µM (inactive) in the test on MDA-N. Moreover, the GI50 in the test with SF-539, in the test with UACC-257, in the test on SW-620, in the test on HOP-92, with K562 and with SK-OV-3 was > 100 µM (inactive) in each case. In addition, the GI50 with HCC 2998, in the test with T47D, with NCI/ADR-RES, in the test on HCT-116, in the test on M14 and in the test with NCI-H226 was > 100 µM (inactive) each time. Moreover, the GI50 in the test with LOX IMVI and in the test with CCRF-CEM was > 100 µM (inactive) in each case.
Take `CN1C(NN)=NS(=O)(=O)c2ccccc21`: the GI50 in the test on ACHN is > 100 µM (inactive); in the test with SR, 8.51 µM (inactive); in the test on Hs-578T it was > 100 µM (inactive); in the test with HCT-15, above 100 µM; with CAKI-1, > 100 µM (inactive); in the test with MDA-N, > 100 µM (inactive). Besides, the GI50 in the test on SF-539, in the test on UACC-257, in the test on SW-620, in the test with HOP-92, in the test on K562 and with SK-OV-3 was > 100 µM (inactive) in each case. The GI50 with HCC 2998, with T47D, in the test with NCI/ADR-RES, with HCT-116, with M14 and in the test on NCI-H226 was > 100 µM (inactive) throughout. For the same compound, the GI50 in the test with LOX IMVI and in the test on CCRF-CEM was > 100 µM (inactive) each time.
For the compound `C/C=C(\C)C(O)C(C)C(O)C/C=C(C)/C=C(\C)C/C(C)=C/C/C=C(\C)C(O)C(C)c1ccc(CCC)c(=O)o1` (stereo not given), the GI50 in the test with ACHN was < 0.01 µM (active); with SR, 18.8 µM (inactive); with Hs-578T, 14.5 µM (inactive); in the test with HCT-15, 1.17 µM; in the test on CAKI-1, 12.9 µM (inactive); in the test with MDA-N, 8.77 µM (inactive). Besides, the GI50 is 14.1 µM (inactive) in the test on SF-539; 0.249 µM (active) in the test on UACC-257; 12.3 µM (inactive) with SW-620; 16.6 µM (inactive) in the test on HOP-92; 0.501 µM (active) in the test on K562; 32.2 µM (inactive) in the test with SK-OV-3. Also, the GI50 was 12.9 µM (inactive) in the test with HCC 2998; 12.1 µM (inactive) with T47D; 2.8 µM (inactive) in the test on NCI/ADR-RES; 0.544 µM (active) in the test with HCT-116; 14.9 µM (inactive) with M14; 21.1 µM (inactive) in the test on NCI-H226. In addition, the GI50 is 6.68 µM (inactive) in the test with LOX IMVI and 61.8 µM (inactive) in the test on CCRF-CEM.
Turning to `COc1nc(NC2OC(COC(C)=O)C(OC(C)=O)C(OC(C)=O)C2OC(C)=O)c(/N=C/C=N/c2c(NC3OC(COC(C)=O)C(OC(C)=O)C(OC(C)=O)C3OC(C)=O)nc(OC)n(C)c2=O)c(=O)n1C` (stereo not given), the GI50 in the test with ACHN was > 100 µM (inactive); in the test on SR, > 100 µM (inactive); with Hs-578T it was 28.3 µM (inactive); in the test with HCT-15, above 100 µM; in the test on CAKI-1, > 100 µM (inactive); with MDA-N, > 100 µM (inactive). Also, the GI50 in the test on SF-539 is > 100 µM (inactive); in the test on UACC-257, > 100 µM (inactive); in the test with SW-620, > 100 µM (inactive); with HOP-92 it was 39 µM (inactive); in the test with K562, > 100 µM (inactive); in the test with SK-OV-3, > 88.3 µM (inactive). Further, the GI50 in the test on HCC 2998 is > 100 µM (inactive); with T47D, > 100 µM (inactive); with NCI/ADR-RES, > 100 µM (inactive); with HCT-116, > 100 µM (inactive); with M14 it was > 100 µM (inactive); in the test with NCI-H226, 97.5 µM (inactive). In addition, the GI50 in the test with LOX IMVI and in the test on CCRF-CEM was > 100 µM (inactive) each time.
In the case of `COc1ccc2c3c1O[C@H](c1ccc(O)cc1)[C@H]3[N+](C)(C)CC2`, the GI50 in the test with ACHN is > 100 µM (inactive); in the test with SR it was > 100 µM (inactive); in the test with Hs-578T, > 100 µM (inactive); with HCT-15, above 100 µM; in the test with CAKI-1 it was > 100 µM (inactive); with MDA-N, > 100 µM (inactive). Besides, the GI50 in the test with SF-539 is > 100 µM (inactive); with UACC-257 it was > 100 µM (inactive); with SW-620 it was > 100 µM (inactive); in the test on HOP-92 it was > 100 µM (inactive); with K562, 34.1 µM (inactive); with SK-OV-3, > 100 µM (inactive). Also, the GI50 with HCC 2998, in the test with T47D, in the test with NCI/ADR-RES, with HCT-116, with M14 and in the test with NCI-H226 was > 100 µM (inactive) throughout. For the same compound, the GI50 with LOX IMVI and in the test with CCRF-CEM was > 100 µM (inactive) each time.
`CC1=CCCC2C1(C)CCC(C)C2(C)Cc1cc(O)ccc1O` (stereo not given): the GI50 is 11.9 µM (inactive) in the test on ACHN; 5.46 µM (inactive) with SR; 6.19 µM (inactive) in the test on Hs-578T; 8.73 µM with HCT-15; 7.1 µM (inactive) in the test on CAKI-1; 11.1 µM (inactive) in the test with MDA-N. Besides, the GI50 is 8.34 µM (inactive) with SF-539; 13.2 µM (inactive) in the test with UACC-257; 6.12 µM (inactive) in the test with SW-620; 5.79 µM (inactive) in the test on HOP-92; 4.81 µM (inactive) with K562; 14.6 µM (inactive) in the test on SK-OV-3. The GI50 in the test on HCC 2998 was 8.59 µM (inactive); with T47D, 6.59 µM (inactive); with NCI/ADR-RES, 5.21 µM (inactive); in the test on HCT-116, 4 µM (inactive); with M14 it was 14.4 µM (inactive); in the test on NCI-H226 it was 9.29 µM (inactive). The GI50 is 5.48 µM (inactive) in the test on LOX IMVI and 1.56 µM (inactive) in the test on CCRF-CEM.
With `COC(=O)C1C2OC(C)(C)OC2CN1S(=O)(=O)c1ccc(C)cc1` (stereo not given), the GI50 was > 100 µM (inactive) with ACHN; > 100 µM (inactive) in the test with SR; > 100 µM (inactive) in the test on Hs-578T; above 100 µM in the test with HCT-15; > 100 µM (inactive) in the test with CAKI-1; > 100 µM (inactive) with MDA-N. Besides, the GI50 in the test on SF-539, with UACC-257, with SW-620, with HOP-92, in the test with K562 and in the test on SK-OV-3 was > 100 µM (inactive) each time. Further, the GI50 in the test on HCC 2998 is > 100 µM (inactive); with T47D, > 100 µM (inactive); in the test with NCI/ADR-RES, > 100 µM (inactive); in the test on HCT-116, > 100 µM (inactive); in the test with M14 it was > 100 µM (inactive); in the test with NCI-H226, 0.0527 µM (active). The GI50 in the test with LOX IMVI and in the test on CCRF-CEM was > 100 µM (inactive) throughout.
